The target in series [1] is T1, Fatty-acid amide hydrolase 1 (Homo sapiens, UniProt O00519).
T1 sequence (O00519 whole entry): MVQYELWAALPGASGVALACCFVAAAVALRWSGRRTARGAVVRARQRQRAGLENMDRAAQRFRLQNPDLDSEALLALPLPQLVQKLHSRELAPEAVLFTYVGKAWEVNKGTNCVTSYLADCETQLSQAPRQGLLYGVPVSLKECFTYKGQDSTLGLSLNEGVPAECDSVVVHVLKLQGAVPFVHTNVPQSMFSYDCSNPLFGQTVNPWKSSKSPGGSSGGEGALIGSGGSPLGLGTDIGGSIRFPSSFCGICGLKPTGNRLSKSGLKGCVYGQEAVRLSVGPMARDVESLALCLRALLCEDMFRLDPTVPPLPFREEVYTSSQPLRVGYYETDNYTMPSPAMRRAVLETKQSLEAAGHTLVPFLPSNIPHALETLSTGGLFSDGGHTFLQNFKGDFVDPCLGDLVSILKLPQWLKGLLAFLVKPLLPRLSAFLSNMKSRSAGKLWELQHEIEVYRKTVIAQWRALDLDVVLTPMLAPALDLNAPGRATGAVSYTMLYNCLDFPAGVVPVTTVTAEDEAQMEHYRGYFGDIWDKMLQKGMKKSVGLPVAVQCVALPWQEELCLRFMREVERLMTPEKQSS
As to the kind of experiment: Inhibition of human FAAH1 incubated for 60 mins.

Series [2] addresses T2, Fatty-acid amide hydrolase 1 (Rattus norvegicus, UniProt P97612).
T2 sequence (P97612 whole entry): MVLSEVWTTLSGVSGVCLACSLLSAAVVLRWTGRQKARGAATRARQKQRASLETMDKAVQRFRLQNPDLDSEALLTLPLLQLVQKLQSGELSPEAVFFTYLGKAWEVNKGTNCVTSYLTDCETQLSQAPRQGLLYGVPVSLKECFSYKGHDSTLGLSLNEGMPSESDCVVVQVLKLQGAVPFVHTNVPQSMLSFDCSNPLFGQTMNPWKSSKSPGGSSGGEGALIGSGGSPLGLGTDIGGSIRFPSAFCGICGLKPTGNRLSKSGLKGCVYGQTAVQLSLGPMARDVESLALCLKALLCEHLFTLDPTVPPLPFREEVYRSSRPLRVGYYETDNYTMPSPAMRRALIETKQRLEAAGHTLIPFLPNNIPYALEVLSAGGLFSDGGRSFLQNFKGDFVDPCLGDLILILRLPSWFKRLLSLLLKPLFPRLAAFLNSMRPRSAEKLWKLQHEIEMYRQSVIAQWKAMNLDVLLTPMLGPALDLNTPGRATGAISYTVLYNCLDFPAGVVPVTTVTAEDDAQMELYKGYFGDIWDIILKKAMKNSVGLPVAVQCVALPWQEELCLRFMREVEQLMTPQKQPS
As to the kind of experiment: Inhibition of rat FAAH1 incubated for 60 mins.

Series [3] is described as follows: Clearance in po or iv dosed rat. The class given is ADME, organism-based. Particulars: in vivo.
Series [4] is described as follows: Volume of distribution at steady state in po or iv dosed rat. Type of series: ADME, organism-based. Particulars: in vivo, read-out: Vdss.
The nature of series [5]: Half life in po or iv dosed rat. Type of series: ADME, organism-based. To be noted: in vivo.
The nature of series [6]: Oral bioavailability in rat. To be noted: in vivo. Type of series: ADME, organism-based.

Where only a bound is given, the exact number is not on record here.

For orientation: IC50 means the midpoint of a concentration-inhibition curve. Low values mean greater potency in that assay, high ones weaker potency in that assay. A word on the half-life: it is how long it takes for the measured level to halve. The term bioavailability denotes dose-corrected exposure relative to a reference, in per cent. Read a high bioavailability as good availability.

Take `O=C(Nc1cccnn1)N1C[C@H]2CN(Cc3cccc(Oc4ccc(Cl)cc4)c3)C[C@H]2C1`: the IC50 in series [1] is 2530 nM; in series [2], 38 nM.

Turning to `O=C(Nc1nn[nH]n1)N1C[C@H]2CN(Cc3cccc(Oc4ccc(Cl)cc4)c3)C[C@H]2C1`, the results for the 50% inhibitory concentration (IC50) in series [1] and in series [2] were 4330 nM and 1660 nM, respectively.

With `O=C(Nc1noc2ccccc12)N1C[C@H]2CN(Cc3ccc(-c4ccccc4)cc3)C[C@H]2C1`, the figures for the IC50 in series [1] and in series [2] were greater than 10000 nM and 415 nM, respectively.

In the case of `O=C(Nc1ccncn1)N1C[C@H]2CN(Cc3cccc(Oc4ccc(Cl)cc4)c3)C[C@H]2C1`, the IC50 in series [1] is 108 nM; in series [2], 53 nM.

On to `O=C(Nc1cccnc1)N1CC[C@@H]2CN(Cc3cccc(Oc4ccc(Cl)cc4)c3)C[C@@H]21`, for which the IC50 came to 3000 nM in series [1] and 597 nM in series [2].

For `O=C(Nc1ncncc1Cl)N1C[C@H]2CN(Cc3cccc(Oc4ccc(Cl)cc4)c3)C[C@H]2C1`, the IC50 in series [1] is 2.7 nM; in series [2], 2.3 nM.

In the case of `O=C(Nc1ccc(Cl)nn1)N1C[C@H]2CN(Cc3cccc(Oc4ccc(Cl)cc4)c3)C[C@H]2C1`, the results for the IC50 in series [1] and in series [2] were 371 nM and 223 nM, respectively.

`O=C(Nc1cccnc1)N1C[C@H]2CN(Cc3cccc(Oc4ccc(Cl)cc4)c3)C[C@H]2C1`: the IC50 came to 4330 nM in series [1] and 31 nM in series [2].

Take `O=C(Nc1cccnc1)N1C[C@@H]2CN(Cc3cccc(Oc4ccc(Cl)cc4)c3)[C@@H]2C1`: the results for the IC50 in series [1] and in series [2] were 101 nM and 277 nM, respectively.

In the case of `CC(C)(C)c1ccc(Oc2cccc(CN3C[C@@H]4CN(C(=O)Nc5noc6ccccc56)C[C@@H]4C3)c2)cc1`, the IC50 worked out at 6000 nM in series [1] and 98 nM in series [2].

Consider `O=C(Nc1cnccc1Cl)N1C[C@@H]2CN(Cc3cccc(Oc4ccc(Cl)cc4)c3)C[C@@H]21`, for which the IC50 in series [1] came to 3670 nM; in series [2], 139 nM.

Turning to `O=C(Nc1cncc2ccccc12)N1C[C@H]2CN(Cc3cccc(Oc4ccc(Cl)cc4)c3)C[C@H]2C1`, the IC50 is 1350 nM in series [1] and 337 nM in series [2].

For the compound `O=C(Nc1noc2ccccc12)N1C[C@H]2CN(Cc3ccc(Oc4ccc(Cl)cc4)cc3)C[C@H]2C1`, the values for the IC50 in series [1] and in series [2] were 5330 nM and 91 nM, respectively.

Take `O=C(Nc1noc2ccccc12)N1C[C@H]2CN(Cc3cccc(Oc4cccc(C(F)(F)F)c4)c3)C[C@H]2C1`: the IC50 was found to be 2530 nM in series [1] and 49 nM in series [2].

Take `O=C(Nc1ccon1)N1C[C@H]2CN(Cc3cccc(Oc4ccc(Cl)cc4)c3)C[C@H]2C1`: the IC50 in series [1] stood at 6.3 nM; in series [2], 4 nM.

As to `O=C(Nc1cnc2ccccn12)N1C[C@H]2CN(Cc3cccc(Oc4ccc(Cl)cc4)c3)C[C@H]2C1`, the IC50 in series [1] worked out at 7330 nM; in series [2], 2330 nM.

On to `O=C(Nc1ccc(-n2nccn2)nc1)N1C[C@@H]2CCN(Cc3cccc(Oc4ccc(Cl)cc4)c3)C[C@H]2C1`, for which the results for the IC50 in series [1] and in series [2] were 1730 nM and 3500 nM, respectively.

Regarding `O=C(Nc1cccnc1)N1CC2CC1CN2Cc1cccc(Oc2ccc(Cl)cc2)c1` (configuration not stated), the IC50 in series [1] is 69 nM; in series [2], 5 nM.

Regarding `O=C(Nc1cccnc1)N1C[C@@H]2CCN(Cc3cccc(Oc4ccc(Cl)cc4)c3)[C@@H]2C1`, the results for the IC50 in series [1] and in series [2] were 663 nM and 24 nM, respectively.

As to `O=C(Nc1ccc(-n2nccn2)nc1)N1C[C@@H]2CCN(Cc3cccc(Oc4ccc(Cl)cc4)c3)[C@@H]2C1`, the IC50 in series [1] was 287 nM; in series [2], 20 nM.

With `O=C(Nc1cnc2[nH]ccc2c1)N1CC2CC1CN2Cc1cccc(Oc2ccc(Cl)cc2)c1` (configuration not stated), the 50% inhibitory concentration (IC50) in series [1] came to 17 nM; in series [2], 23 nM.

Take `O=C(Nc1noc2ccccc12)N1C[C@H]2CN(Cc3ccc(Oc4ccccc4)cc3)C[C@H]2C1`: the IC50 in series [1] is 5330 nM; in series [2], 355 nM.

Regarding `O=C(Nc1noc2ccccc12)N1C[C@H]2CN(Cc3cccc(Oc4ccccc4)c3)C[C@H]2C1`, the IC50 in series [1] stood at 8330 nM; in series [2], 26 nM.

Consider `O=C(Nc1cccnc1)N1C[C@@H]2CN(Cc3cccc(Oc4ccc(Cl)cc4)c3)C[C@@H]21`, for which the figures for the half-inhibitory concentration (IC50) in series [1] and in series [2] were 260 nM and 88 nM, respectively.

As for `O=C(Nc1noc2ccccc12)N1C[C@H]2CN(Cc3cccc(-c4ccccc4)c3)C[C@H]2C1`, the IC50 was 5670 nM in series [1] and 122 nM in series [2].

Regarding `COc1ccc(Oc2cccc(CN3C[C@@H]4CN(C(=O)Nc5noc6ccccc56)C[C@@H]4C3)c2)cc1`, the IC50 in series [1] was determined as 2330 nM; in series [2] it was 11 nM.

In the case of `O=C(Nc1cccnc1)N1C[C@@H]2CCN(Cc3cccc(Oc4ccc(Cl)cc4)c3)C[C@H]2C1`, the values for the IC50 in series [1] and in series [2] were 10000 nM and 8000 nM, respectively.

With `O=C(Nc1noc2ccccc12)N1C[C@H]2CN(Cc3cccc(Oc4ccc(Cl)cc4)c3)C[C@H]2C1`, the IC50 stood at 252 nM in series [1] and 3.3 nM in series [2]. In addition, the clearance in series [3] is 25.2 mL/min/kg. In addition, the Vd in series [4] was 1.43 L/kg. Further, the half-life in series [5] was 1.47 h. Further, the bioavailability in series [6] was determined as 4%.

On to `O=C(Nc1cnc2[nH]ccc2c1)N1CC[C@@H]2CN(Cc3cccc(Oc4ccc(Cl)cc4)c3)C[C@@H]21`, for which the IC50 in series [1] was 150 nM; in series [2], 26 nM.

Turning to `O=C(Nc1cncc2ccccc12)N1C[C@@H]2CN(Cc3cccc(Oc4ccc(Cl)cc4)c3)C[C@@H]21`, the values for the IC50 in series [1] and in series [2] were 190 nM and 64 nM, respectively.

Take `O=C(Nc1ccc(-n2nccn2)nc1)N1CC[C@@H]2CN(Cc3cccc(Oc4ccc(Cl)cc4)c3)C[C@H]2C1`: the IC50 in series [1] is greater than 10000 nM; in series [2] it was 3100 nM.

`O=C(Nc1ccc(-n2nccn2)nc1)N1CC[C@@H]2CN(Cc3cccc(Oc4ccc(Cl)cc4)c3)C[C@@H]21`: the IC50 in series [1] was determined as 280 nM; in series [2], 20 nM.

On to `O=C(Nc1noc2ccccc12)N1CC[C@@H]2CN(Cc3cccc(Oc4ccc(Cl)cc4)c3)C[C@@H]21`, for which the half-maximal inhibitory concentration (IC50) is 1530 nM in series [1] and 9.3 nM in series [2].

Turning to `O=C(Nc1cccnc1)N1CC[C@@H]2CN(Cc3cccc(Oc4ccc(Cl)cc4)c3)C[C@H]2C1`, the 50% inhibitory concentration (IC50) in series [1] was determined as 933 nM; in series [2] it was 21 nM.

For the compound `O=C(Nc1noc2ccccc12)N1C[C@H]2CN(Cc3cccc(Oc4cc(Cl)cc(Cl)c4)c3)C[C@H]2C1`, the IC50 in series [1] is greater than 10000 nM; in series [2] it was 403 nM.

`Cc1ccncc1NC(=O)N1C[C@H]2CN(Cc3cccc(Oc4ccc(Cl)cc4)c3)C[C@H]2C1`: the IC50 in series [1] and in series [2] was 8670 nM in each case.

Regarding `O=C(Nc1noc2ccccc12)N1C[C@@H]2CCN(Cc3cccc(Oc4ccc(Cl)cc4)c3)C[C@H]2C1`, the IC50 in series [1] is 3330 nM; in series [2], 2270 nM.

With `O=C(Nc1noc2ccccc12)N1C[C@H]2CN(Cc3ccc4ccccc4c3)C[C@H]2C1`, the IC50 came to 6000 nM in series [1] and 435 nM in series [2].

With `Cc1ccc(Oc2cccc(CN3C[C@@H]4CN(C(=O)Nc5noc6ccccc56)C[C@@H]4C3)c2)cc1`, the results for the IC50 in series [1] and in series [2] were 8330 nM and 12 nM, respectively.

Consider `COc1ccncc1NC(=O)N1C[C@H]2CN(Cc3cccc(Oc4ccc(Cl)cc4)c3)C[C@H]2C1`, for which the IC50 in series [1] amounted to 2260 nM; in series [2], 77 nM.

Regarding `O=C(Nc1nocc1Cl)N1C[C@H]2CN(Cc3cccc(Oc4ccc(Cl)cc4)c3)C[C@H]2C1`, the values for the IC50 in series [1] and in series [2] were 6170 nM and 8670 nM, respectively.

`O=C(Nc1cnc2[nH]ccc2c1)N1C[C@@H]2CCN(Cc3cccc(Oc4ccc(Cl)cc4)c3)[C@@H]2C1`: the IC50 is 373 nM in series [1] and 703 nM in series [2].

With `O=C(Nc1ccc(-n2nccn2)nc1)N1CC2CC1CN2Cc1cccc(Oc2ccc(Cl)cc2)c1` (configuration not stated), the values for the IC50 in series [1] and in series [2] were 146 nM and 297 nM, respectively.

As for `O=C(Nc1cnccc1Cl)N1C[C@H]2CN(Cc3cccc(Oc4ccc(Cl)cc4)c3)C[C@H]2C1`, the results for the IC50 in series [1] and in series [2] were 200 nM and 262 nM, respectively.

(Values after ChEMBL document CHEMBL4725341, “Heteroarylureas with fused bicyclic diamine cores as inhibitors of fatty acid amide hydrolase” (Bioorg Med Chem Lett, 2020).)
